The numbers were not newly measured in paper PMC10719327, “A dose-escalation study of HP501, a highly selective URAT1 inhibitor, in male Chinese patients with hyperuricemia” (Scientific Reports, 2023), which cites them from elsewhere.

In data set [1] the test system is Japanese patients with hyperuricemia. Also noted: method as in PMID 30334639.
The subject of a further data set is patients. Details: method as in PMID 29029210. Particulars: lesinurad monotherapy.

Each structure is given as a SMILES string.

In the case of `CC(C)(Sc1ccncc1-c1ccc(C#N)c2ccccc12)C(=O)O` [Verinurad], in data set [1], the “patients with serum creatinine elevated 1.5 times to baseline level” value is 17.1%.

`O=C(O)CSc1nnc(Br)n1-c1ccc(C2CC2)c2ccccc12` [lesinurad]: the “patients with increased serum creatinine” value in the data set on patients is on record as “About 24.30%”.
